# Assay results from patent publication US20240374739A1, “BILE ACID CONJUGATE” (Curtin University, priority 2021, published 2024).
# Legend:
# [1] = tested on: Rats subjected to sub-concussion (SC); assay: Rotarod test, brain injury (sub-concussion) study (Experimental Example 3); assay type: in vivo; conditions: at 12 weeks (FIG. 14)
# From the text: Repeated sub-concussive head impacts are reported to impair psychomotor function. Rats were subjected to sham procedure, sub-concussion (SC) with control diet (AlN93M), SC with probucol, SC with aged garlic extract (AGE), or SC with HA-1 for 12 weeks.
# Both rotarod and beam walk tests assess neuromotor function. On beam walk, the higher the slips show the more impairment. On rotarod, the lower the latency indicates the more impairment.
# Caspase 3/9 protein = assay: Caspase assay; assay type: cell-based; conditions: OC-1 cells under stressful, toxic conditions (FIG. 31)
# Protocol: The caspase assay was carried as per manufacturer's instructions (abcam, NSW, Australia), as described below.
# • Collagen coated cover slip • Fixing agent: 4% paraformaldehyde • Permeabilization agent 0.5% of Tween 20 or trition-X 100 diluted in PBS • Blocking: 1% BSA in PBST may also be used. • PBST: 0.1% Tween 20 in PBS • Primary abs (1:500 in PBS) • Secondary abs (1:1000 in PBS) • Hoechst (Nuclear stain)
# First day: Fixation, permeabilize, blocking and add a primary antibody to the cells, as described below:
# • Start by aspirating culture medium from each well followed by fixation of the cells with 4% Using 4% paraformaldehyde in PBS pH 7.4 for 10 min at room temperature. (Add one ml in each well). • Shake a plate for a few seconds.
# 0.5% of Tween 20 or trition-X 100 diluted in PBS. […]
# • Make coverslips ready to be mounted onto microscope slides. • Take a clean slide and dispense one drop of antifade mounting medium by slowly from the pipette into the slide. • Carefully remove a coverslip from the well and allow excess wash to drip off and place the cells face down onto the slide. • Clear fingernail polish can be used to seal the coverslip and prevent it from drying out. • Visualized slide under microscope. […]
compound,measurement,setting,value
"CC(=O)O[C@@H]1CC[C@@]2(C)[C@H](CC[C@@H]3[C@@H]2CC[C@]2(C)[C@@H]([C@H](C)CCC(=O)Oc4c(C(C)(C)C)cc(SC(C)(C)Sc5cc(C(C)(C)C)c(O)c(C(C)(C)C)c5)cc4C(C)(C)C)CC[C@@H]32)C1 [HA-1, 2,6-di-tert-butyl-4-((2-((3,5-di-tert-butyl-4-hydroxyphenyl)thio)propan-2-yl)thio)phenyl (4R)-4-[(3R,5R,8R,9S,10S,13R,14S,17R)-3-acetoxy-10,13-dimethyl-2,3,4,5,6,7,8,9,11,12,14,15,16,17-tetradecahydro-1H-cyclopenta[a]phenanthren-17-yl]pentanoate]",rotarod latency (average),[1],significantly increased the latency
same,protection against programmed cell death (caspase-3 activation) / viable cell population,Caspase 3/9 protein,significant protection against programmed cell death
